Results taken from patent US12692477B2, “Medium composition for culturing porcine pluripotent stem cells” (SPACE F CORP., priority 2018, dated 2026).

B1: activin A: activin A, signal molecule acting through the SMAD signal transduction system (protein, UniProt P08476 311-426, looked up)
Inhibin beta A chain: GLECDGKVNICCKKQFFVSFKDIGWNDWIIAPSGYHANYCEGECPSHIAGTSGSSLSFHSTVINHYRMRGHSPFANLKSCCVPTKLRPMSMLYYDDGQNIIKKDIQNMIVEECGCS

Assays:
[1] = test system: porcine blastocysts (inner cell mass); assay: Culture of porcine blastocysts on feeder cells with signal molecule combinations in serum replacement medium; format: cell-based
Protocol: First, a culture medium including KSR, N2/B27, KSR+N2/B27, or KSR+LC was used to find a serum replacement suitable for the growth of porcine embryos. […] As a result, it was confirmed that the inner cell mass expressing SOX2 rapidly grew in the group treated with KSR and KSR+LC (FIG. 1). Second, for long-term culturing of the inner cell mass, signal molecules were treated in various combinations (Table 6 and Table 7).
The culturing was attempted by adding signal molecules to basal medium including KSR or KSR+LC. Porcine embryonic stein cells were established in a culture medium including FGF2, A, and 6-[[2-[[4-(2,4-Dichlorophenyl)-5-(5-methyl-1H-imidazol-2-yl)-2-pyrimidinyl]amino]ethyl]amino]-3-pyridinecarbonitrile (CHIR99021) in a culture solution including serum replacement 4 (Tables 6 and 7, FIG. 2). In addition, for the stabilization of CHIR99021, 4-(1,3,3a,4,7,7a-Hexahydro-1,3-dioxo-4,7-methano-2H-isoindol-2-yl)-N-8-quinolinyl-Benzamide (IWR-1) was added to establish the composition for long-term culturing and maintenance of porcine embryonic stem cells, as shown in Table 8 and Table 9, respectively.

[2] = test system: porcine pluripotent stem cells; assay: Influence of growth factor concentration in porcine pluripotent stem cell culture medium; format: cell-based; conditions: for Optimal concentration / optimal concentration: in culture medium
Protocol: The influence of a growth factor concentration in a porcine pluripotent stem cell culture medium established in the above-described example was analyzed, and the results are shown in Table 10. When the concentration of growth factors was low, the growth of stem cells was reduced, and when the concentration of growth factor was high, except for bFGF, cells were killed. The allowable concentration of the bFGF was 3.03×10^−4 to 6.06×10^−3 μM, and the optimal concentration was 1.21×10^−3 μM. The allowable concentration of the Activin A was 1.50×10^−4 to 5.40×10^−4 μM, and the optimal concentration was 3.85×10^−4 μM. The allowable concentration of the CHIR99021 was 0.5 to 2.50 μM, and the optimal concentration was 1.50 μM. The allowable concentration of the IWR-1 was 1.20 to 3.00 μM, and the optimal concentration was 2.50 μM.

Row | Molecule | Blastocyst initial growth rate (%) ([1]; serum replacement 1) | Sox2 positive rate of the initial population (%) ([1]; serum replacement 1) | Number of embryonic stem cell lines established in the long-term culture ([1]; serum replacement 1, 30 blastocysts) | Blastocyst initial growth rate (%) ([1]; serum replacement 4) | Sox2 positive rate of the initial population (%) ([1]; serum replacement 4) | Number of embryonic stem cell lines established in the long-term culture ([1]; serum replacement 4, 29 blastocysts) | Optimal concentration [2] [mM] | optimal concentration [2] [µM] | Symptoms when exceeding the appropriate concentration [2]
1 | bFGF: basic fibroblast growth factor, signal molecule in the culture medium | 30.0 ± 5.8 | 30.0 ± 5.8 | 0 | 51.5 ± 4.6 | 44.8 ± 2.9 | 0 | 1.21e-06 | 0.00121 | –
2 | Cc1cnc(-c2cnc(NCCNc3ccc(C#N)cn3)nc2-c2ccc(Cl)cc2Cl)[nH]1 [CHIR99021, 6-[[2-[[4-(2,4-Dichlorophenyl)-5-(5-methyl-1H-imidazol-2-yl)-2-pyrimidinyl]amino]ethyl]amino]-3-pyridinecarbonitrile, reference compound] | – | – | – | – | – | – | 0.0015 | 1.50 | –
3 | O=C(Nc1cccc2cccnc12)c1ccc(N2C(=O)C3C4C=CC(C4)C3C2=O)cc1 (stereo not drawn) [IWR-1, 4-(1,3,3a,4,7,7a-Hexahydro-1,3-dioxo-4,7-methano-2H-isoindol-2-yl)-N-8-quinolinyl-Benzamide, reference compound] | – | – | – | – | – | – | 0.0025 | 2.50 | –
4 | B1 | – | – | – | – | – | – | 3.85e-07 | 0.000385 | Cell death
